# According to patent US4676822A, “Fluid fertilizers containing thiophosphoryl triamide” (Tennessee Valley Authority, priority 1986, dated 1987):
# Several values for one entry are separate records, joined by “and”; a condition that tells them apart may be missing. Equal entries are not always repeated. Where two headings read alike, the source gives them in different places.
# What was measured:
# urease [1] = settings: prior art; cited from earlier work
# [2] = compared with PPDA; cited from earlier work
# [3] = 25° C., water partial pressure 12.73 mm of Hg; cited from earlier work
# urease [4] = experiment: Urease inhibition tests with TPTA and PPDA in fluid fertilizers, banded soil system (urease-active Hastings silt loam); assay type: biochemical; settings: for average % urea unhydrolyzed, 3 days / % urea unhydrolyzed, 3 days: 3 days incubation at 25° C.; for average % urea unhydrolyzed, 3 days / average % urea unhydrolyzed, 6 days: average of A and B samples; for % urea unhydrolyzed, 3 days / % urea unhydrolyzed, 6 days: single sample; for average % urea unhydrolyzed, 6 days / % urea unhydrolyzed, 6 days: 6 days incubation at 25° C.
# Protocol: Samples of UAN (31-0-0), 1 g, and (36-0-0), 0.66 g containing approximately 0.38 g urea and 0.041 g of TPTA were prepared by dissolving solid TPTA in 31-0-0 and 36-0-0 of the compositions shown in Table I, supra. Identical samples containing PPDA and without either inhibitor were prepared to serve as references for purposes of data comparison.
# Urease-active soil (Hastings silt loam) was moistened to a moisture content of 20 percent and preincubated at room temperature for two days. Plexiglass containers (6×6×6 cm) were one-half filled with soil and packed to a bulk density of 1.0 g/cm^3. The 31-0-0 and 36-0-0 samples containing TPTA and PPDA as well as samples containing no inhibitor were distributed evenly in a narrow band 6 cm along the soil surface. The containers were filled with soil and again packed to a bulk density of 1.0 g/cm^3. The containers were incubated at 25° C. for the desired reaction period. After incubation the soil from each container was thoroughly mixed, and a 10-g sample was extracted with 100 mL of 2M KCl containing 5 ppm phenylmercuric acetate to prevent urea hydrolysis during handling [L. A. Douglass and J. M. Bremner, Soil Sci. Soc. Am. Proc. 34, 859-862 (1970)]. The urea in the extracts was determined colorimetrically as a measure of unhydrolyzed urea. The results of three-day and six-day incubation tests are illustrated in Table II infra; and as noted supra, plotted in FIG. 1.
# [5] = solid mixtures with urea, 25° C.; cited from earlier work
# [6] = 25° C., cited from earlier work; for first-order reaction half-life: UAN (31-0-0)
structure (smiles),measurement,setting,value
"NP(N)(=O)O [DAPA, diamidophosphoric acid]",urease inhibition (in words),urease [1],are urease inhibitors
"NP(N)(N)=O [PTA, phosphoryl triamide]",stability in urea melt,[2],much less stable in urea melt than PPDA
same,reaction half-life in solid mixtures with urea,[3],4.3 h
"NP(=O)(O)O [MAPA, monoamido phosphoric acid]",urease inhibition (in words),urease [1],are urease inhibitors
"NP(N)(=O)Oc1ccccc1 [PPDA, phenyl phosphorodiamidate, reference compound]","average % urea unhydrolyzed, 3 days",urease [4]; UAN (31-0-0),83.36%
same,"% urea unhydrolyzed, 3 days",urease [4]; UAN (31-0-0),83.64% and 83.09%
same,"average % urea unhydrolyzed, 6 days",urease [4]; UAN (31-0-0),12.61%
same,"% urea unhydrolyzed, 6 days",urease [4]; UAN (31-0-0),14.03% and 11.20%
same,"average % urea unhydrolyzed, 3 days",urease [4]; UAN (36-0-0),85.73% and 84%
same,"% urea unhydrolyzed, 3 days",urease [4]; UAN (36-0-0),86.22% and 81.24%
same,"average % urea unhydrolyzed, 6 days",urease [4]; UAN (36-0-0),11.32% and 11%
same,"% urea unhydrolyzed, 6 days",urease [4]; UAN (36-0-0),12.10% and 10.53%
same,half-life of PPDA in mixtures with urea,[5],0.9 years
same,first-order reaction half-life,[6]; pH 6.46,146 h
same,first-order reaction half-life,[6]; pH 8.14,28.8 h
same,decomposition rate constant,[6]; UAN (36-0-0) saturated with PPDA,10.2 percent decomposition per day
same,decomposition rate constant,[6]; UAS (29-0-0-5S) saturated with PPDA,20.5 percent decomposition per day
same,urease inhibition (in words),urease [1],extremely potent inhibitor of urease activity
